Patent US7241732B2, “Compositions and methods involved in bone growth” (University of Rochester, priority 2001, dated 2007)

Key:
[1] = test system: osteoblast gene products; experiment: Osteoblast gene expression profile assay (real-time PCR); assay type: cell-based
Method: Both GPC4 and TRIP have been used in the creation of an osteoblast gene expression profile assay. This assay utilizes cDNA primer pairs that can be used to amplify a number of osteoblast gene products with real-time PCR. In addition to GPC4 and TRIP the following are assayed; osteocalcin (a bone specific protein), alkaline phosphatase (an enzyme present in large amounts in osteoblasts, cbfa1 (a transcription factor that induces osteoblast differentiation), PTH receptor 1 (the receptor responsible for PTH action), PTH receptor 2 (a secondary receptor that may be responsible for PTHrP action).
The data are interpretted by analyzing an increase in PCR cycle number, i.e. the number of PCR cycles necessary to obtain product. The higher the cylce number the smaller amount of starting mRNA.

[2] = biological target: T1, type V tartrate resistant acid phosphatase (TRAP) (Sus scrofa, UniProt P09889); experiment: Phage display bio-panning of random 12 amino acid M13 library with immobilized TRAP; assay type: binding; conditions: 44 phage clones sequenced after three rounds of bio-panning with TRAP
T1 construct: One was from a purified protein extraction; from tissue; host or cells: gift of Dr. R. M. Roberts (University of Missouri)
T1 sequence (P09889 22-340): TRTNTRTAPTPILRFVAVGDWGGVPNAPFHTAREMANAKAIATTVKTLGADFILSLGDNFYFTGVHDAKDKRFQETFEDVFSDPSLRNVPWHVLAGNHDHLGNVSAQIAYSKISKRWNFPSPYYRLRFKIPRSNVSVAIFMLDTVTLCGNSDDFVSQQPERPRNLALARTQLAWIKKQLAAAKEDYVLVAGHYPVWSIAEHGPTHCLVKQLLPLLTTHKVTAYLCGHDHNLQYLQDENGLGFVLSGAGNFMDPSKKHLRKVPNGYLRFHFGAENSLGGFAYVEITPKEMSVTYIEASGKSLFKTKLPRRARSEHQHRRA
From the text: In phage display either random peptide libraries or cell specific cDNA libraries can be used. Both have been used to target the interactions that take place in bone resporbtion and formation. Generally, the peptides or proteins are expressed on the surface coat of M13 or T7 phage and then these phage are used in a biopanning technique to identify which phage have affinity for a particular substrate (the “bait”). The adherent phage are eluted, amplified and used in another round of panning. After at least three rounds, phage clones are sequenced.
The TRAP used in these experiments was purified to homogeneity and was generously provided by Dr. M. Roberts.
After three rounds of bio-panning, elution and amplification 44 phage clones were selected at random and sequenced. Nine different sequences were identified. They are listed in Table 4 along with their consensus frequency. The most frequent phage sequenced was represented 15 times and the least frequent only a single time.

[3] = test system: osteoblast binding to osteoclast lacunae; experiment: Competition cell binding assay, osteoblasts on pitted bone wafers; assay type: cell-based, rat
Method: (§1) The 12 amino acid oligopeptide corresponding to the sequence from Clone 5 can inhibit osteoblast binding to osteoclast lacunae. […] (For these experiments, approximately 20% of the area of the wafers was pitted.) A concentration of 50 nM for the oligopeptide blocked osteoblast binding by approximately 66%. A statistically significant inhibition for binding occurred down to a concentration of 10 pM of the oligopeptide.
as §1, with “For” for “(For”, “pitted.” for “pitted.)”
To measure the effect of selected phage peptides on osteoblast binding in osteoclast lacunae we performed a cell binding assay in the presence of increasing concentrations of the phage peptide. Osteoblasts were prelabeled with L-[4,5-^3H]Leucine (250 μCi TRK636-250 μCi, Amersham ) for 24 hrs. The osteoblasts were then added to pitted bone wafers in the presence of increasing concentrations of a synthetic 12 amino acid peptide that was identical to the phage sequence. After a two hour incubation at 37° C. the wafers were washed and the amount of radiolabel associated on each wafer determined by scintillation spectrometry. The specific activity of the cells (i.e. cpm/cell) was used to determine the number of cells adhering to the wafers.

[4] = test system: TRAP (GAL-4-BD-TRAP); experiment: Mammalian two-hybrid assay TRAP / GPC4; assay type: cell-based, human; conditions: SaOS2 cells
Method: A mammalian two-hybrid assay was performed utilizing materials obtained from Clonetech (catalog #K1602-1). In this procedure we created two fusion proteins; a GAL4-BD-TRAP and a VP16-AD-GPC4. […] The TRAP sequence was obtained from Dr. James Bixley, University of Missouri, Columbia, Mo. GPC4 was obtained from a human osteoblast cDNA library from MG-63 cells.
GAL-4-BD-TRAP binds to the promoter of a luciferase reporter gene and the VP-16-AD-GPC4 activates RNA polymerase II activity. If the two target proteins interact with each other they will bring the binding domain protein into the vicinity of the activation domain and luciferase transcription will occur. The presence of luciferase activity in co-transfected cells is evidence for a physical association between the proteins.
In a control experiment, a second VP-16-AD protein was constructed using a GPC4 sequence deficient in the 12 amino acids identified from Clone 5 phage biopanning. This construct is termed VP-16-AD-GPC412. Deletion of the 12 amino acids from the GPC4 gene was accomplished with linker scanning mutagenesis
Pairs of plasmids were co-transfected into SaOS2 osteoblast-like cells using Lipofectamine®.

Sequence of TRAP (GAL-4-BD-TRAP) (P13686 22-325): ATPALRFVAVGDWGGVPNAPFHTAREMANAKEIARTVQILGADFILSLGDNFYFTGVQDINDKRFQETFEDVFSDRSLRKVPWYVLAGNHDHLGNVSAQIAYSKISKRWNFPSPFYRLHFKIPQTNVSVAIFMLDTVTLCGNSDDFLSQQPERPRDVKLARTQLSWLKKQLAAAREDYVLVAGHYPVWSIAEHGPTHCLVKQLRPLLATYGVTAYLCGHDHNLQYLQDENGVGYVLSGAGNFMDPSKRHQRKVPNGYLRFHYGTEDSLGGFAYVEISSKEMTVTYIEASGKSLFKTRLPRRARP

Lead
effect on osteoblast gene products (in words) [1]: depresses all of the above gene products including GPC4 and TRIP
Lead PCR cycle number, TRIP ([1]; control 21): 26
Lead PCR cycle number, alkaline phosphatase ([1]; control 23): 27
Lead PCR cycle number, osteocalcin ([1]; control 23): 26
Lead PCR cycle number, cbfa1 ([1]; control 24): 28
Lead PCR cycle number, PTH receptor 1 ([1]; control 28): 33
Lead PCR cycle number, PTH receptor 2 ([1]; control 31): 32
Lead PCR cycle number, GPC4 ([1]; higher cycle number = smaller amount of starting mRNA, control 19): 24

SEQ. ID No. 2: phage clone insert DNA from TRAP bio-panning, encodes peptide SEQ. ID No. 20 (DNA ACTATGGGTTTTACGGCTCCGCGGTTTCCGCATTAT; expressed or natural sequence)
Fre (consensus frequency among sequenced phage clones) [2]: 6/44

SEQ. ID No. 3: phage clone insert DNA from TRAP bio-panning, encodes peptide SEQ. ID No. 21 (DNA TCTCAGTGGCATCCGCGGTCTGCGTCGTATCCGATG; expressed or natural sequence)
Fre (consensus frequency among sequenced phage clones) [2]: 4/44

SEQ. ID No. 4: phage clone insert DNA from TRAP bio-panning, encodes peptide SEQ. ID No. 22 (DNA ACGCCGTCTCTTCCTCCGACTATGTTTCGGTTGACT; expressed or natural sequence)
Fre (consensus frequency among sequenced phage clones) [2]: 4/44

SEQ. ID No. 6: phage clone insert DNA from TRAP bio-panning, encodes peptide SEQ. ID No. 24 (DNA CGGCCACGGAACACCAGTAGACGTCCCATGCGCAGA; expressed or natural sequence)
Fre (consensus frequency among sequenced phage clones) [2]: 2/44

SEQ. ID No. 7: phage clone insert DNA from TRAP bio-panning, encodes peptide SEQ. ID No. 25 (DNA ATAATGCGGAAACCGCGGAGCCGTAAAACCCATAGT; expressed or natural sequence)
Fre (consensus frequency among sequenced phage clones) [2]: 5/44

SEQ. ID No. 8: phage clone insert DNA from TRAP bio-panning, encodes peptide SEQ. ID No. 26 (DNA CGGCCAACGGAACACCAGTAGACGTCCCATGCGCAG; expressed or natural sequence)
Fre (consensus frequency among sequenced phage clones) [2]: 2/44

SEQ. ID No. 9: phage clone insert DNA from TRAP bio-panning, encodes peptide SEQ. ID No. 27 (DNA ACCAAGCCCCGAATCACGCGAATAAAGCGGCCAAGA; expressed or natural sequence)
Fre (consensus frequency among sequenced phage clones) [2]: 2/44

TPLSYLKGLVTV [Clone 5 peptide]
blocked osteoblast binding ([3]; 50 nM oligopeptide, about 20% of wafer area pitted): approximately 66%
interference with osteoblast binding to osteoclast lacunae (in words) ([3]; FIG. 13): interfere with this osteoblast binding in a dose dependent fashion
lowest concentration with statistically significant inhibition of osteoblast binding ([3]; pitted bone wafers): 10 pM

B1: VP-16-AD-GPC412: VP-16-AD fusion of GPC4 deficient in the 12 amino acids identified from Clone 5 (protein)
chain: ALLAAELKSKSCSEVRRLYVSKGFNKNDAPLHEINGDHLKICPQGSTCCSQEMEEKYSLQSKDDFKSVVSEQCNHLQAVFASRYKKFDEFFKELLENAEKSLNDMFVKTYGHLYMQNSELFKDLFVELKRYYVVGNVNLEEMLNDFWARLLERMFRLVNSQYHFTDEYLECVSKYTEQLKPFGDVPRKLKLQVTRAFVAARTFAQGLAVAGDVVSKVSVVNPTAQCTHALLKMKPCYNYCSNIMRGCLANQGDLDFEWNNFIDAMLMVAERLEGPFNIESVMDPIDVKISDAIMNMQDNSVQVSQKVFQGCGPPKPLPAGRISRSISESAFSARFRPHHPEERPTTAAGTSLDRLVTDVKEKLKQAKKFWSSLPSNVCNDERMAAGNGNEDDCWNGKGKSRYLFAVTGNGLANQGNNPEVQVDTSKPDILILRQIMALRVMTSKMKNAYNGNDVDFFDISDESSGEGSGSGCEYQQCPSEFDYNATDHAGKSANEKADSAGVRPGAQAYLLTVFCILFLVMQREWR
modifications: left off: large carriers
increase in luciferase activity on co-transfection with GAL-4-BD-TRAP [4]: showed no difference from control levels

B2: VP-16-AD-GPC4: glypican 4 (GPC4) expressed as fusion protein with VP-16 activation domain (protein)
chain: ALLAAELKSKSCSEVRRLYVSKGFNKNDAPLHEINGDHLKICPQGSTCCSQEMEEKYSLQSKDDFKSVVSEQCNHLQAVFASRYKKFDEFFKELLENAEKSLNDMFVKTYGHLYMQNSELFKDLFVELKRYYVVGNVNLEEMLNDFWARLLERMFRLVNSQYHFTDEYLECVSKYTEQLKPFGDVPRKLKLQVTRAFVAARTFAQGLAVAGDVVSKVSVVNPTAQCTHALLKMIYCSHCRGLVTVKPCYNYCSNIMRGCLANQGDLDFEWNNFIDAMLMVAERLEGPFNIESVMDPIDVKISDAIMNMQDNSVQVSQKVFQGCGPPKPLPAGRISRSISESAFSARFRPHHPEERPTTAAGTSLDRLVTDVKEKLKQAKKFWSSLPSNVCNDERMAAGNGNEDDCWNGKGKSRYLFAVTGNGLANQGNNPEVQVDTSKPDILILRQIMALRVMTSKMKNAYNGNDVDFFDISDESSGEGSGSGCEYQQCPSEFDYNATDHAGKSANEKADS
modifications: left off: large carriers
increase in luciferase activity on co-transfection with GAL-4-BD-TRAP [4]: 10-20 fold
